Assay: molar heat capacity at constant pressure; xn = mol fraction of the nth substance listed
Conditions: 101.3 kPa, Liquid, Large sample (1 g) DSC

CC(O)CCO (stereo not drawn) [1,3-butanediol] + CCCCO
molar heat capacity at constant pressure [J/K/mol]
Conditions | x1 = 0.189 | x1 = 0.2983 | x1 = 0.436 | x1 = 0.5902 | x1 = 0.7056 | x1 = 0.8961 | x1 = 1
285.15 K | 178.21 | 183.56 | 189.77 | 196.24 | 200.97 | 210.06 | 211.74
285.65 K | 178.59 | 183.85 | 190.08 | 196.61 | 201.4 | 208.67 | 212.17
288.15 K | 179.92 | 185.21 | 191.37 | 198 | 202.79 | 210.1 | 213.57
290.65 K | 181.38 | 186.6 | 192.85 | 199.46 | 204.22 | 211.53 | 215.06
293.15 K | 182.92 | 188.08 | 194.38 | 200.87 | 205.67 | 213 | 216.58
295.65 K | 184.43 | 189.64 | 195.81 | 202.4 | 207.15 | 214.51 | 218.04
298.15 K | 186.01 | 191.11 | 197.31 | 203.91 | 208.58 | 216.08 | 219.62
300.65 K | 187.6 | 192.65 | 198.88 | 205.47 | 210.16 | 217.6 | 221.14
303.15 K | 189.31 | 194.35 | 200.51 | 207.08 | 211.81 | 219.24 | 222.8
305.65 K | 191.04 | 195.99 | 202.12 | 208.6 | 213.36 | 220.73 | 224.37
308.15 K | 192.78 | 197.71 | 203.81 | 210.26 | 215.04 | 222.49 | 226.07
310.65 K | 194.41 | 199.34 | 205.42 | 211.86 | 216.58 | 224.04 | 227.65
313.15 K | 196.3 | 201.02 | 207.06 | 213.43 | 218.21 | 225.64 | 229.24
315.65 K | 198.07 | 202.81 | 208.71 | 215.01 | 219.75 | 227.18 | 230.82
318.15 K | 199.98 | 204.63 | 210.53 | 216.77 | 221.57 | 228.97 | 232.6
320.65 K | 201.89 | 206.47 | 212.31 | 218.48 | 223.19 | 230.61 | 234.14
323.15 K | 203.75 | 208.15 | 214.02 | 220.21 | 224.86 | 232.26 | 235.83
325.65 K | 205.57 | 210.02 | 215.77 | 221.9 | 226.54 | 233.95 | 237.52
328.15 K | 207.42 | 211.77 | 217.34 | 223.44 | 228.18 | 235.52 | 239.08
330.65 K | 209.47 | 213.61 | 219.1 | 225.17 | 229.9 | 237.35 | 240.59
333.15 K | 211.36 | 215.41 | 220.86 | 226.84 | 231.42 | 238.77 | 242.28
335.65 K | 213.23 | 217.15 | 222.54 | 228.47 | 232.95 | 240.35 | 243.86
338.15 K | 215.01 | 218.85 | 224.14 | 229.97 | 234.44 | 241.71 | 245.11
340.65 K | 217.62 | 220.95 | 226.11 | 231.92 | 236.35 | 243.67 | 247.19
343.15 K | 219.25 | 222.78 | 227.81 | 233.46 | 237.95 | 245.19 | 248.62
345.65 K | 221.09 | 224.51 | 229.58 | 235.21 | 239.85 | 246.7 | 250.13
348.15 K | 223.12 | 226.46 | 231.31 | 236.83 | 241.5 | 248.27 | 251.66
350.65 K | 224.98 | 228.29 | 232.97 | 238.43 | 242.73 | 249.77 | 253.24
353.15 K | 227.13 | 230.3 | 234.85 | 240.2 | 244.5 | 251.52 | 254.86

— the NIST ThermoML archive (doi:10.1016/j.jct.2004.09.007)
